Data reported in ChEMBL document CHEMBL5143615, “Novel 2-aryl-4-aryloxyquinoline-based fungistatics for Mucor circinelloides. Biological evaluation of activity, QSAR and docking study” (Bioorg Med Chem Lett, 2022).
In brackets after ≈: the same amount, converted by molar mass.

system: Mucor circinelloides; test: Antifungal activity against Mucor circinelloides R7B wild type strain assessed as reduction in spore germination at 25 ug/ml relative to control; assay type: functional; set-up: scale not given: the % may be the effect or the level left; conditions: dose 25 µg/ml

Row | Compound | Activity
1 | OC(Cn1cncn1)(Cn1cncn1)c1ccc(F)cc1F [FLUCONAZOLE] | 83.3%

system: Mucor circinelloides; test: Antifungal activity against Mucor circinelloides M5 strain assessed as reduction in spore germination at 25 ug/ml relative to control; assay type: functional; set-up: scale not given: the % may be the effect or the level left; conditions: dose 25 µg/ml

Row | Compound | Activity
2 | OC(Cn1cncn1)(Cn1cncn1)c1ccc(F)cc1F [FLUCONAZOLE] | 72.6%

system: Mucor circinelloides; test: Antifungal activity against Mucor circinelloides R7B wild type strain assessed as reduction in spore germination at 50 ug/ml relative to control; assay type: functional; set-up: scale not given: the % may be the effect or the level left; conditions: dose 50 µg/ml

Row | Compound | Activity
3 | OC(Cn1cncn1)(Cn1cncn1)c1ccc(F)cc1F [FLUCONAZOLE] | 28.2%

system: Mucor circinelloides; test: Antifungal activity against Mucor circinelloides M5 strain assessed as reduction in spore germination at 50 ug/ml relative to control; assay type: functional; set-up: scale not given: the % may be the effect or the level left; conditions: dose 50 µg/ml

Row | Compound | Activity
4 | OC(Cn1cncn1)(Cn1cncn1)c1ccc(F)cc1F [FLUCONAZOLE] | 30.4%

system: Mucor circinelloides; test: Antifungal activity against Mucor circinelloides R7B wild type strain assessed as reduction in spore germination at 150 ug/ml relative to control; assay type: functional; set-up: scale not given: the % may be the effect or the level left; conditions: dose 150 µg/ml

Row | Compound | Activity
5 | OC(Cn1cncn1)(Cn1cncn1)c1ccc(F)cc1F [FLUCONAZOLE] | 4.8%

system: Mucor circinelloides; test: Antifungal activity against Mucor circinelloides M5 strain assessed as reduction in spore germination at 150 ug/ml relative to control; assay type: functional; set-up: scale not given: the % may be the effect or the level left; conditions: dose 150 µg/ml

Row | Compound | Activity
6 | OC(Cn1cncn1)(Cn1cncn1)c1ccc(F)cc1F [FLUCONAZOLE] | 6.7%

system: Microsporum canis; test: Antifungal activity against Microsporum canis clinical isolate 1 assessed as reduction in fungal growth by broth dilution method; assay type: functional; conditions: not given

Row | Compound | MIC
7 | OC(Cn1cncn1)(Cn1cncn1)c1ccc(F)cc1F [FLUCONAZOLE] | 50 µg/mL (≈ 163 µM)

system: Microsporum canis; test: Antifungal activity against Microsporum canis clinical isolate 2 assessed as reduction in fungal growth by broth dilution method; assay type: functional; conditions: not given

Row | Compound | MIC
8 | OC(Cn1cncn1)(Cn1cncn1)c1ccc(F)cc1F [FLUCONAZOLE] | 50 µg/mL (≈ 163 µM)

system: Microsporum canis; test: Antifungal activity against Microsporum canis clinical isolate 3 assessed as reduction in fungal growth by broth dilution method; assay type: functional; conditions: not given

Row | Compound | MIC
9 | OC(Cn1cncn1)(Cn1cncn1)c1ccc(F)cc1F [FLUCONAZOLE] | 50 µg/mL (≈ 163 µM)

system: Nannizzia gypsea; test: Antifungal activity against Microsporum gypseum clinical isolate 1 assessed as reduction in fungal growth by broth dilution method; assay type: functional; conditions: not given

Row | Compound | MIC
10 | OC(Cn1cncn1)(Cn1cncn1)c1ccc(F)cc1F [FLUCONAZOLE] | 50 µg/mL (≈ 163 µM)

system: Nannizzia gypsea; test: Antifungal activity against Microsporum gypseum clinical isolate 2 assessed as reduction in fungal growth by broth dilution method; assay type: functional; conditions: not given

Row | Compound | MIC
11 | OC(Cn1cncn1)(Cn1cncn1)c1ccc(F)cc1F [FLUCONAZOLE] | 50 µg/mL (≈ 163 µM)

system: Mucor circinelloides; test: Antifungal activity against Mucor circinelloides M5 strain assessed as reduction in fungal growth by broth dilution method; assay type: functional; conditions: not given

Row | Compound | MIC
12 | OC(Cn1cncn1)(Cn1cncn1)c1ccc(F)cc1F [FLUCONAZOLE] | > 150 µg/mL

system: Trichophyton mentagrophytes; test: Antifungal activity against Trichophyton mentagrophytes clinical isolate 1 assessed as reduction in fungal growth by broth dilution method; assay type: functional; conditions: not given

Row | Compound | MIC
13 | OC(Cn1cncn1)(Cn1cncn1)c1ccc(F)cc1F [FLUCONAZOLE] | 75 µg/mL (≈ 245 µM)

system: Trichophyton mentagrophytes; test: Antifungal activity against Trichophyton mentagrophytes clinical isolate 2 assessed as reduction in fungal growth by broth dilution method; assay type: functional; conditions: not given

Row | Compound | MIC
14 | OC(Cn1cncn1)(Cn1cncn1)c1ccc(F)cc1F [FLUCONAZOLE] | 75 µg/mL (≈ 245 µM)

system: Trichophyton mentagrophytes; test: Antifungal activity against Trichophyton mentagrophytes clinical isolate 3 assessed as reduction in fungal growth by broth dilution method; assay type: functional; conditions: not given

Row | Compound | MIC
15 | OC(Cn1cncn1)(Cn1cncn1)c1ccc(F)cc1F [FLUCONAZOLE] | 75 µg/mL (≈ 245 µM)

system: Trichophyton rubrum; test: Antifungal activity against Trichophyton rubrum clinical isolate 1 assessed as reduction in fungal growth by broth dilution method; assay type: functional; conditions: not given

Row | Compound | MIC
16 | OC(Cn1cncn1)(Cn1cncn1)c1ccc(F)cc1F [FLUCONAZOLE] | 75 µg/mL (≈ 245 µM)

system: Trichophyton rubrum; test: Antifungal activity against Trichophyton rubrum clinical isolate 2 assessed as reduction in fungal growth by broth dilution method; assay type: functional; conditions: not given

Row | Compound | MIC
17 | OC(Cn1cncn1)(Cn1cncn1)c1ccc(F)cc1F [FLUCONAZOLE] | 75 µg/mL (≈ 245 µM)

system: Epidermophyton floccosum; test: Antifungal activity against Epidermophyton floccosum clinical isolate 1 assessed as reduction in fungal growth by broth dilution method; assay type: functional; conditions: not given

Row | Compound | MIC
18 | OC(Cn1cncn1)(Cn1cncn1)c1ccc(F)cc1F [FLUCONAZOLE] | 50 µg/mL (≈ 163 µM)

system: Aspergillus nidulans; test: Antifungal activity against Aspergillus nidulans clinical isolate 1 assessed as reduction in fungal growth by broth dilution method; assay type: functional; conditions: not given

Row | Compound | MIC
19 | OC(Cn1cncn1)(Cn1cncn1)c1ccc(F)cc1F [FLUCONAZOLE] | 50 µg/mL (≈ 163 µM)

system: Aspergillus nidulans; test: Antifungal activity against Aspergillus nidulans clinical isolate 2 assessed as reduction in fungal growth by broth dilution method; assay type: functional; conditions: not given

Row | Compound | MIC
20 | OC(Cn1cncn1)(Cn1cncn1)c1ccc(F)cc1F [FLUCONAZOLE] | 50 µg/mL (≈ 163 µM)
